Assay results taken from patent US8691870B2, “Use of isothiocyanates for treating cancer” (Mackay Memorial Hospital, priority 2011, dated 2014).
Where two headings read alike, the source gives them in different places.

Legend:
Assay type in all cases: cell-based, human
[1] = tested on: imatinib resistant CML K562R cells; test: Liu's staining, morphology of imatinib resistant CML K562R cells; conditions: 20 μM, indicates apoptosis and mitotic arrest
Description: (§1) The imatinib resistant human chronic myelogenous leukemia (CML) cell line K562R was induced by procedures described above in the “Materials and Methods” Section. Anti-proliferative activity of I7557 and I7557 were respectively assessed by cell viability and cell cycle analysis, as well as by immunoblot and Liu's Staining.

p-Cdc2 kinase = test: Immunoblot analysis of p-cdc2 kinase in K562R cells; conditions: FIG. 9
Experimental: (§2) Cultured cells were lysed by use of well known lysing buffer, and total amount of proteins were determined by Bradford method. […] The separated proteins were then transferred to nitrocellulose membrane and non-specific binding was removed by TBST buffer (0.8% NaCl, 0.02% KCl, 25 mM Tris-HCl/pH 8.0 and 0.1% Tween-20) containing 4% skim milk. Antibodies including p-Plk-1, p-Chk-1, p-Chk-2, p-Cdc2, GAPDH, α-tubulin, β-tubulin, and p-histone H3 (purchased from Transduction Laboratories, Lexington, Ky., USA), were respectively dissolved in TBST buffer containing 2% skim milk and incubated with the separated protein bands at 4° C. for at least over night; followed by incubation with horseradish conjugated secondary antibodies at room temperature for about 30 min, and then detected by ECL chemiluminesance detection kit (Amersham Pharmacia Biotech, US).

BE-3 cells = test: MTT cell viability assay on BE-3 cells; set-up: key to Cell viability (MTT reading), I / Cell viability (MTT reading), II / Cell viability (MTT reading), Average / Cell viability (MTT reading), III: absorbance at 570 nm; conditions: for Cell viability (MTT reading), I: replicate I; for Cell viability (MTT reading), II: replicate II
Experimental: (§3) Cell lines used in the present disclosure include human chronic myelogenous leukemia (CML) cell line K562, Imatinib-resistant K562 cell line K562R, human pancreatic carcinoma, epithelial-like cell line PANC-1, human pancreatic cancer cell line BxPc-3, human large cell lung cancer cell line SEG-1, human esophageal squamous cell carcinoma line 81T/VGH and human esophageal adenocarcinoma line BE-3. Each cell lines were cultured and maintained in Dulbecco's modified Eagle media (DMEM) supplemented with 10% fetal calf serum, 100 IU/ml penicillin, 100 μg/ml streptomycin, and 2 mM glutamine in 5% CO2 at 37° C.
(§4) The absorbance of the solution at 570 nm was measured by spectrophotometer.

p-Chk-2 = test: Immunoblot analysis of p-Chk-2 in K562R cells; conditions: FIG. 8
Experimental: as §2

PANC-1 cells [2] = test: Cell cycle analysis of PANC-1 cells; conditions: 24 hours
Experimental: (§5) The fixed cells were then warmed up to room temperature and treated with RNAase A for about 30 min. Precipitated cells were collected by centrifugation and re-suspended in a buffer solution containing propidium iodine (20 μg/ml) before being subject to flow cytometry analysis, where cell numbers at respective cell cycles were determined.

81T/VGH cells = test: MTT cell viability assay on 81T/VGH cells; set-up: key to Cell viability (MTT reading), I / Cell viability (MTT reading), II / Cell viability (MTT reading), III / Cell viability (MTT reading), Average: absorbance at 570 nm; conditions: 48 hours; for Cell viability (MTT reading), I: replicate I; for Cell viability (MTT reading), II: replicate II; for Cell viability (MTT reading), III: replicate III
Experimental: as §3, §4

p-Chk-1 = test: Immunoblot analysis of p-Chk-1 in K562R cells; conditions: FIG. 7
Experimental: as §2

BxPC-3 cells = test: Radiation treatment and clonogenic assay, BxPC-3 cells
Description: (§6) The drugs were then washed out, and cells were subject to radiation treatment. Specifically, 6 MeV electron beam energy was delivered by a linear accelerator (Clinac 1800, Varian Associates, Inc., Palo Alto, Calif., USA) with a rate of 2.4 Gy/min at various dose including 0, 0.5, 1, 2 and 4 Gy in a single fraction. Full electron equilibrium was ensured for each fraction by a parallel plate PR-60C ionization chamber ([…], Inc., Ramsey, N.Y., USA).
(§7) After radiation treatment, cells were returned to the culture for another 10 to 14 days; then were stained with 3% crystal violet and the numbers of colony (≧50 cells) were counted.
(§8) The colony is defined to consist of at least 50 cells.

[3] = tested on: imatinib resistant CML K562R cells; test: Cell cycle analysis (flow cytometry) of imatinib resistant CML K562R cells; conditions: 24 hours
Experimental: The CML cell line, K562R, was cultured in the presence of a continuous low dose of imatinib mesylate, which is also termed STI-571, to generate their resistance to imatinib. In operation, K562R cells were maintained in the DMEM supplemented with 10% fetal calf serum (FCS), 100 IU/ml penicillin, 100 μg/ml streptomycin, 2 mM glutamine and 0.2 μM imatinib in 5% CO2 at 37° C.
as §5, §1

[4] = tested on: phosphorylated histone H3; test: Immunoblot analysis of phosphorylated histone H3 in K562R cells; conditions: FIG. 10
Experimental: as §2

cyclin B1 = test: Immunoblot analysis of cyclin B1 in K562R cells; conditions: FIG. 5
Experimental: as §2

PANC-1 cells [5] = test: Radiation treatment and clonogenic assay, PANC-1 cells
Description: as §6, §7, §8

p-Plk-1 = test: Immunoblot analysis of phosphorylated Plk-1 in K562R cells; conditions: FIG. 6
Experimental: as §2

β-tubulin = test: Immunoblot analysis of β-tubulin in K562R cells; conditions: FIG. 4
Experimental: as §2

Compound: CS(=O)(=O)CCCCCCN=C=S [I7557, 6-methylsulfonylhexyl isothiocyanate]
- Cell morphology after Liu's staining [1]: round up with an appearance of a balloon
- level of p-cdc2 kinase vs control (p-Cdc2 kinase): decreased
- Cell viability (MTT reading), Average (BE-3 cells; BE-3, 10 μM, 48 hours): 1.635 ± 0.078
- Cell viability (MTT reading), I (BE-3 cells; BE-3, 10 μM, 48 hours): 1.581
- Cell viability (MTT reading), II (BE-3 cells; BE-3, 10 μM, 48 hours): 1.534
- Cell viability (MTT reading), Average (BE-3 cells; BE-3, 20 μM, 48 hours): 1.151 ± 0.028
- Cell viability (MTT reading), I (BE-3 cells; BE-3, 20 μM, 48 hours): 1.105
- Cell viability (MTT reading), II (BE-3 cells; BE-3, 20 μM, 48 hours): 1.147
- Cell viability (MTT reading), III (BE-3 cells; BE-3, 20 μM, 48 hours, replicate III): 1.201
- inhibition at 10 µM (BE-3 cells; Homo sapiens, BE-3, 10 μM, 48 hours): 26.8 ± 1.05%
- inhibition at 20 µM (BE-3 cells; Homo sapiens, BE-3, 20 μM, 48 hours, read-out: % of inhibition): 48.4 ± 1%
- inhibition at 20 µM (BE-3 cells; Homo sapiens, BE-3, 20 μM, read-out: cancerous cells' growth inhibition): ~50%
- level of p-Chk-2 vs control (p-Chk-2): decreased
- Cell Cycle (%) G0/G1 (PANC-1 cells [2]; 10 μM): 45.43 ± 1.27%
- Cell Cycle (%) G2/M (PANC-1 cells [2]; 10 μM): 28.38 ± 2.41%
- Cell Cycle (%) S (PANC-1 cells [2]; 10 μM): 26.19 ± 3.28%
- Cell Cycle (%) Sub-G1% (PANC-1 cells [2]; 10 μM): 0.79 ± 0.05%
- Cell Cycle (%) G0/G1 (PANC-1 cells [2]; 20 μM): 24.71 ± 2.98%
- Cell Cycle (%) G2/M (PANC-1 cells [2]; 20 μM): 55.84 ± 0.63%
- Cell Cycle (%) S (PANC-1 cells [2]; 20 μM): 19.45 ± 3.32%
- Cell Cycle (%) Sub-G1% (PANC-1 cells [2]; 20 μM): 2.05 ± 0.44%
- Cell viability (MTT reading), Average (81T/VGH cells; 10 μM): 1.514 ± 0.104
- Cell viability (MTT reading), I (81T/VGH cells; 10 μM): 1.324
- Cell viability (MTT reading), II (81T/VGH cells; 10 μM): 1.682
- Cell viability (MTT reading), III (81T/VGH cells; 10 μM): 1.537
- Cell viability (MTT reading), Average (81T/VGH cells; 20 μM): 0.965 ± 0.086
- Cell viability (MTT reading), I (81T/VGH cells; 20 μM): 0.804
- Cell viability (MTT reading), II (81T/VGH cells; 20 μM): 0.991
- Cell viability (MTT reading), III (81T/VGH cells; 20 μM): 1.100
- inhibition at 10 µM (81T/VGH cells; Homo sapiens, 10 μM): 30.6 ± 5.18%
- inhibition at 20 µM (81T/VGH cells; Homo sapiens, 20 μM): 55.4 ± 6.11%
- level of p-Chk-1 vs control (p-Chk-1): decreased
- Number of colonies (clonogenic assay) (BxPC-3 cells; BxPC-3, 5 μM pre-treatment 24 hours, radiation 0 Gy): 33
- Number of colonies (clonogenic assay) (BxPC-3 cells; BxPC-3, 5 μM pre-treatment 24 hours, radiation 0.5 Gy): 37
- Number of colonies (clonogenic assay) (BxPC-3 cells; BxPC-3, 5 μM pre-treatment 24 hours, radiation 1 Gy): 39
- Number of colonies (clonogenic assay) (BxPC-3 cells; BxPC-3, 5 μM pre-treatment 24 hours, radiation 2 Gy): 29
- Number of colonies (clonogenic assay) (BxPC-3 cells; BxPC-3, 5 μM pre-treatment 24 hours, radiation 4 Gy): 9
- Number of colonies (clonogenic assay) (BxPC-3 cells; BxPC-3, 10 μM pre-treatment 24 hours, radiation 0 Gy): 16
- Number of colonies (clonogenic assay) (BxPC-3 cells; BxPC-3, 10 μM pre-treatment 24 hours, radiation 0.5 Gy): 15
- Number of colonies (clonogenic assay) (BxPC-3 cells; BxPC-3, 10 μM pre-treatment 24 hours, radiation 1 Gy): 8
- Number of colonies (clonogenic assay) (BxPC-3 cells; BxPC-3, 10 μM pre-treatment 24 hours, radiation 2 Gy): 7
- Number of colonies (clonogenic assay) (BxPC-3 cells; BxPC-3, 10 μM pre-treatment 24 hours, radiation 4 Gy): 1
- susceptibility of cells to radiation treatment (BxPC-3 cells; BxPc-3, 10 μM): enhancing the susceptibility
- Cell Cycle (%) G0/G1 ([3]; 5 μM): 30.79 ± 2.28%
- Cell Cycle (%) G2/M ([3]; 5 μM): 22.84 ± 0.60%
- Cell Cycle (%) S ([3]; 5 μM): 46.38 ± 1.73%
- Cell Cycle (%) Sub-G1% ([3]; 5 μM): 0.52 ± 0.07%
- Cell Cycle (%) G0/G1 ([3]; 10 μM): 30.52 ± 0.96%
- Cell Cycle (%) G2/M ([3]; 10 μM): 18.40 ± 1.16%
- Cell Cycle (%) S ([3]; 10 μM): 51.08 ± 0.36%
- Cell Cycle (%) Sub-G1% ([3]; 10 μM): 1.18 ± 0.08%
- Cell Cycle (%) G0/G1 ([3]; 20 μM): 11.54 ± 6.51%
- Cell Cycle (%) G2/M ([3]; 20 μM): 65.10 ± 8.16%
- Cell Cycle (%) S ([3]; 20 μM): 23.36 ± 2.45%
- Cell Cycle (%) Sub-G1% ([3]; 20 μM): 5.33 ± 1.46%
- levels of phosphorylated histone H3 vs control cells [4]: significantly higher
- level of cyclin B1 vs control (cyclin B1): increased
- Number of colonies (clonogenic assay) (PANC-1 cells [5]; PANC-1, 5 μM pre-treatment 24 hours, radiation 0 Gy): 60
- Number of colonies (clonogenic assay) (PANC-1 cells [5]; PANC-1, 5 μM pre-treatment 24 hours, radiation 0.5 Gy): 63
- Number of colonies (clonogenic assay) (PANC-1 cells [5]; PANC-1, 5 μM pre-treatment 24 hours, radiation 1 Gy): 59
- Number of colonies (clonogenic assay) (PANC-1 cells [5]; PANC-1, 5 μM pre-treatment 24 hours, radiation 2 Gy): 48
- Number of colonies (clonogenic assay) (PANC-1 cells [5]; PANC-1, 5 μM pre-treatment 24 hours, radiation 4 Gy): 20
- susceptibility of cells to radiation treatment (PANC-1 cells [5]; PANC-1, 10 μM): enhancing the susceptibility
- Number of colonies (clonogenic assay) (PANC-1 cells [5]; PANC-1, 10 μM pre-treatment 24 hours, radiation 0 Gy): 41
- Number of colonies (clonogenic assay) (PANC-1 cells [5]; PANC-1, 10 μM pre-treatment 24 hours, radiation 0.5 Gy): 26
- Number of colonies (clonogenic assay) (PANC-1 cells [5]; PANC-1, 10 μM pre-treatment 24 hours, radiation 1 Gy): 35
- Number of colonies (clonogenic assay) (PANC-1 cells [5]; PANC-1, 10 μM pre-treatment 24 hours, radiation 2 Gy): 19
- Number of colonies (clonogenic assay) (PANC-1 cells [5]; PANC-1, 10 μM pre-treatment 24 hours, radiation 4 Gy): 6
- level of phosphorylated Plk-1 vs control (p-Plk-1): increased
- β-tubulin levels vs control cells (β-tubulin): lowered
